Reference: patent US20090137527A1, “Compositions and methods for modulating immune function” (Resolvyx Pharmaceuticals, Inc., priority 2007, published 2009)
Entries after “also recorded” stand apart in the source; their conditions may differ.

Assays:
[1] = test system: whole blood from CIA rats; assay: Ex vivo LPS-stimulated cytokines in whole blood from CIA rats; set-up: species or system rat; details: 0.3 mg/kg i.v. twice daily (day 20 sample: 1 mg/kg orally twice daily) from day 8; 10 ng/mL LPS, 4 hours
Protocol: (§1) Female Lewis rats were anesthetized with 3-5% isoflurane and arthritis was induced by intradermal injection of 0.3 mL (100 μL at three different sites) of an emulsion […] 1.5 mg/mL of type II bovine collagen, CII (Elastin Products Inc., Cat# CM276), in incomplete Freund's adjuvant (IFA) at the base of the tail on day 0 and 6. Control rats were injected with an equal amount of IFA only.
were measured under two different treatment regimens. In the first (prophylactic) treatment regimen, Compound X was administered i.v., twice daily, at 0.3 mg/kg from day 0 to day 6 or 10. For ex vivo studies, animals were euthanized on day 6 after the last injection and their inguinal lymph nodes were harvested. […] For ex vivo studies, animals were euthanized on day 16 and inguinal lymph nodes were harvested. Venous blood samples were collected during the course of treatment. For CD3 activation, 96-well flat bottom plates were coated with anti-CD3 mAb (eBioscience, clone G4.18) 1 μg/mL. Plates were stored overnight at 4° C., and were subsequently rinsed with PBS once before use. […] All data were processed and analyzed by t-test using GraphPad Prism software.
To measure the effect of Compound X on blood cells, rat whole blood samples were taken on day 8, 10, 13, 16 and 20 (n=3-6). […] After 4 hours in culture, supernatants were collected and cytokine levels measured by Bioplex.

[2] = test system: lymph node cells from collagen-induced arthritis rats; assay: Ex vivo cytokine production in lymph node cells from CIA rats treated with compound; set-up: species or system rat
Protocol: as §1
(§2) were measured under two different treatment regimens. In the first (prophylactic) treatment regimen, Compound X was administered i.v., twice daily, at 0.3 mg/kg from day 0 to day 6 or 10. For ex vivo studies, animals were euthanized on day 6 after the last injection and their inguinal lymph nodes were harvested. […] For ex vivo studies, animals were euthanized on day 16 and inguinal lymph nodes were harvested. Venous blood samples were collected during the course of treatment. For CD3 activation, 96-well flat bottom plates were coated with anti-CD3 mAb (eBioscience, clone G4.18) 1 μg/mL. Plates were stored overnight at 4° C., and were subsequently rinsed with PBS once before use. Bovine Type II collagen for tissue culture was purchased from Chondrex (Cat# 2022) and was reconstituted according to the manufacturer's instructions. All data were processed and analyzed by t-test using GraphPad Prism software.
Treatment regimen one was used (n=3). Animals were treated with Compound X from day 0 to day 6, were sacrificed on day 6, and freshly harvested lymph nodes were pressed through a nylon strainer (BD Falcon Cat# 352340) to obtain a single cell suspension. Cells were washed and resuspended in RPMI 1640/10% FCS at 4×10^6/mL. In U-bottom 96-well plates, 100 μL or 4×10^5 cells and 100 μL of collagen at 25 or 50 μg/mL final concentrations were added. Plates were incubated in a 37° C., 5% CO2 incubator overnight. Supernatants were harvested, and rat cytokines were measured with Bioplex (BioRad).
In FIG. 2A, animals were given compound X from Day 0 to Day 6 (treatment regimen one). In FIG. 2B, animals were given compound X from day 8 to day 16 (treatment regimen two).
In FIG. 3A, animals were given compound X from Day 0 to Day 6 (treatment regimen one). In FIG. 3B, animals were given compound X from day 8 to day 16 (treatment regimen two). Freshly harvested lymph nodes were pressed through a nylon strainer (BD Falcon Cat# 352340) to obtain a single cell suspension. Cells were washed and resuspended in RPMI 1640/10% FCS at 4×10^6/mL. To anti-CD3 coated plates were added 4×10^5 cells per well and 100 μL RPMI 1640/10% FCS media. The plates were incubated in a 37° C., 5% CO2 incubator for three days (FIG. 3A) or overnight (FIG. 3B). Rat IL-17 was measured with a kit from Millipore (Cat# RCYTO-18K-01) following the manufacturer's instructions.

[3] = test system: murine DNFB-induced DTH model; assay: DNFB-induced delayed-type-hypersensitivity (DTH) model, ear swelling; format: in vivo, mouse
Protocol: Ear-swelling (swelling of the skin on the pinnae) was the endpoint of this model. This study was carried out over 6 to 7 days, with events occurring as described below.
Mice (female BALB/c; n=10/group) were immunized with 0.5% of DNFB dissolved in acetone/olive oil. Sensitization was done with the contact allergen, wherein 20 μL of the solution was placed on the footpads of the animals.
[…] The mice were challenged at day 5. 10 μL of a 0.8% DNFB solution was topically applied externally on the right ear of the animal. As control, the left ear was treated the same way with vehicle alone (acetone/olive oil).
Animals were anesthetized with isoflurane and the ear swelling was measured within 24 to 48 hours after challenge using a micrometer. The micrometer calipers were closed around the top portion of the each external ear until resistance from the ear was felt. […]

rats with CIA = assay: Rat collagen-induced arthritis (CIA): paw swelling and knee histopathology; format: in vivo
Protocol: as §1
The volume of both hind paws were measured using a water displacement plethysmometer (Ugo Basile, Biological Research Apparatus, Italy), and the onset of arthritis was indicated by increased paw volume, which appeared approximately on day 11 post injection. Both paw volumes and body weights were measured throughout the study every 2-3 days. Nineteen to twenty-one days after CII injection, the rats were euthanized with CO2. Blood was collected by cardiac puncture and serum was saved.
as §2
After the animals were euthanized, both hind paws and knees were removed, hind paws were weighed, and the paws and knees were placed in formalin. Following 1-2 days in fixative and 4-5 days in decalcifier, the ankle joints were cut in half longitudinally, and the knees were cut in half in the frontal plane. The joints were then processed, embedded, sectioned and stained with toluidine blue. Collagen arthritic ankles and knees were given scores of 0-5 for inflammation, pannus formation and bone resorption according to the following criteria:
1 Minimal infiltration of inflammatory cells in periarticular tissue 2 Mild infiltration 3 Moderate infiltration with moderate edema 4 Marked infiltration with marked edema 5 Severe infiltration with severe edema […]

[4] = two treatment regimens: day 0 to day 6, or day 8 to day 16, 0.3 mg/kg i.v. twice daily
[5] = therapeutic, twice daily i.v. 0.3 mg/kg, days 8 to 19

For `CC[C@@H](O)/C=C/C=C\C[C@@H](O)/C=C/C=C/C=C\[C@@H](O)CCCC(=O)O` [Compound X], the “ex vivo LPS-stimulated cytokine production in whole blood” value [1] was “inhibited; also recorded: significantly lower”, the “ex vivo IFN-γ and TNFα production in lymph node cells” value ([2]; 0.3 mg/kg i.v. twice daily day 0 to day 6, collagen 25 or 50 μg/mL overnight) was “inhibited” and the “reduction of collagen- or CD3-induced IFNγ, TNFα and IL-17 secretion from draining lymph node cells” value ([2]; treated animals compared to controls) was 60-90%. For the same compound, the “ex vivo anti-CD3 mAb-induced IL-17 production in lymph node cells” value [2, 4] was “inhibited”, the “ex vivo collagen-induced IFN-γ production in lymph node cells” value [2, 4] was “inhibited” and the “maximal efficacy, inhibition of tissue (ear) swelling” value ([3]; 30 μg/kg i.v., 15 minutes before challenge, ear thickness 24 hours after challenge) was 38%. The “inhibition of the DTH response, Compound X versus dexamethasone” value ([3]; dexamethasone 60 minutes prior to DNFB challenge) was “comparable levels of inhibition”, the “DNFB-DTH response, two regimens” value ([3]; i.p. 0.03 mg/kg once daily day 0 to day 5, or single injection on day 5) was “comparable and significant reduction” and the “tissue swelling, dose dependence” value ([3]; i.v., 15 minutes before challenge) was “dose-dependently reduced”. For the same compound, the “paw swelling (as measured by ankle diameter)” value (rats with CIA; prophylactic, twice daily i.v. 0.3 mg/kg, days 0 to 10) was “significant reduction”, the “bone resorption and joint damage” value (rats with CIA; therapeutic dosing) was “protected” and the “knee histopathology scores: inflammation, pannus, cartilage damage, bone resorption” value (rats with CIA; [5]) was “significant reduction”. The “mean ankle joint volume” value (rats with CIA; [5]) was “significant reduction”.
